Data set [1] in a line: Stability of bleach catalysts: UV-vis absorbance of solutions at pH 11. The class given is physicochemical. On the procedure: The stability of bleach catalysts having the structures shown in Table 2 was determined by preparing solutions of these compounds and measuring their UV-vis absorbance.
A solution of each compound was prepared by dissolving each compound in a mixture of 50 wt. % water and 50 wt. % acetone. The concentration of each solution was 0.28 mM.
The pH of each solution was set to 11 by adding a diluted solution of sodium hydroxide.
The UV-vis absorption of each solution was measured just after preparing the samples (t=0), then at 2 h and 48 h using a UV-Vis Evolution 220 FC-1135 spectrophotometer.

A short description of data set [2]: Amount of solvent system needed to dissolve 0.2 g of bleach catalyst (effect of surfactant on solubility). Type of data set: physicochemical. On the procedure:
The amount of solvent needed to dilute 0.2 g of bleach catalyst 1 was determined. Subsequently solvent systems containing a solvent and 0.06 wt. % of surfactant, based on the total weight of the solvent system, were prepared, and the amount of solvent system needed to dilute 0.2 g of bleach catalyst 1 was determined. It will be recognised that for the preparation of a supported catalyst on a carrier it is necessary to dilute the bleach catalyst in a solvent system.
The results of the amount of solvent system without surfactant and solvent system with surfactant needed to dissolve 0.2 g of bleach catalyst 1 are shown in Table 5.

[3] abbreviates: t = 0, 0.28 mM in 50 wt. % water / 50 wt. % acetone.
Setting [4] is: t = 48 h, 0.28 mM in 50 wt. % water / 50 wt. % acetone.

Entries after “also recorded” stand apart in the source; their conditions may differ. Where only a bound is given, the exact number is not on record here.

Consider `O=S1(=O)N=C(c2ccccn2)c2ccccc21` [Bleach catalyst 1, 3-(33yridine-2-yl)-1,2-benzisothiazole-1,1-dioxide], for which the “Absorption at 445 nm” value in data set [1] (setting [3]) and in data set [1] (setting [4]) was less than 0.05 throughout. The Appearance entry in data set [1] (setting [3]) and in data set [1] (setting [4]) was “Transparent” throughout. In addition, the “Amount of solvent system needed to dissolve 0.2 g of bleach catalyst” value in data set [2] (Acetone) was found to be 5 g; in data set [2] (Acetone with 0.06 wt. % surfactant (ROKAnol L7A)), 2.5 g; in data set [2] (Ethyl acetate), 13 g; in data set [2] (Ethyl acetate with 0.06 wt. % surfactant (ROKAnol L7A)) it was 11 g; in data set [2] (Tetrahydrofuran), 3.5 g; in data set [2] (Tetrahydrofuran with 0.06 wt. % surfactant (ROKAnol L7A)) it was 2.75 g.

As for `O=S1(=O)N=C(c2cccnc2)c2ccccc21` [Bleach catalyst 2, 3-(pyridine-3-yl)-1,2-benzisothiazole-1,1-dioxide], the “Absorption at 445 nm” value in data set [1] (setting [3]) and in data set [1] (setting [4]) was less than 0.05 in each case. The Appearance entry in data set [1] (setting [3]) and in data set [1] (setting [4]) was “Transparent” each time.

Consider `CC1=NS(=O)(=O)c2ccccc21` [Bleach catalyst A, 3-methyl-1,2-benzisothiazole-1,1-dioxide], for which, in data set [1] (setting [3]), the “Absorption at 445 nm” value is on record as less than 0.05 and the Appearance result is recorded as “Transparent”. Also, in data set [1] (setting [4]), the “Absorption at 445 nm” value came to 0.37 and the Appearance result is reported as “coloured/yellow; also recorded: Yellowing”.

For `O=S1(=O)N=C(c2ccccc2)c2ccccc21` [Bleach catalyst B, 3-phenyl-1,2-benzisothiazole-1,1-dioxide], the “Absorption at 445 nm” value in data set [1] (setting [3]) and in data set [1] (setting [4]) was less than 0.05 in each case. In addition, the Appearance entry in data set [1] (setting [3]) and in data set [1] (setting [4]) was “Transparent” each time.

Consider `CC(C)(C)C1=NS(=O)(=O)c2ccccc21` [Bleach catalyst C, 3-tert-butyl-1,2-benzisothiazole-1,1-dioxide], for which, in data set [1] (setting [3]), the “Absorption at 445 nm” value was less than 0.05 and the Appearance entry was “Transparent”. Further, in data set [1] (setting [4]), the “Absorption at 445 nm” value is given as less than 0.05 and the Appearance entry is given as “Transparent”.

The values are drawn from patent publication US20260275249A1, “Bleach Catalyst With Improved Performance, Granule Comprising The Bleach Catalyst, And Composition Comprising Said Catalyst Or Said Granule” (Reckitt Benckiser Vanish B.V., priority 2023, published 2026).
